Assays:
Assay in all cases: KINOMEscan kinase binding assay
[1] = test system: ABL1(E255K)-phosphorylated; settings: at 1 μM
Summary of the method: (§1)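 KINOMEscan competition assay. T7-phage kinase fusions (E. coli lysates) or DNA-tagged HEK-293 kinases; immobilized biotinylated ligand on beads; 1 h RT incubation; qPCR detection of bound kinase. Output: % Ctrl or Kd.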

[2] = test system: ABL1(F317L)-phosphorylated; settings: at 1 μM
Summary of the method: as §1

[3] = test system: ABL1(H396P)-nonphosphorylated; settings: at 1 μM
Summary of the method: as §1

[4] = test system: ABL1(H396P)-phosphorylated; settings: at 1 μM
Summary of the method: as §1

[5] = test system: ABL1(Q252H)-nonphosphorylated; settings: at 1 μM
Summary of the method: as §1

[6] = test system: ABL1(Y253F)-phosphorylated; settings: at 1 μM
Summary of the method: as §1

ABL1-phosphorylated = settings: at 1 μM
Summary of the method: as §1

AXL = settings: at 1 μM
Summary of the method: as §1

BLK = settings: at 1 μM
Summary of the method: as §1

CSF1R-autoinhibited = settings: at 1 μM
Summary of the method: as §1

CSK = settings: at 1 μM
Summary of the method: as §1

DDR1 = settings: at 1 μM
Summary of the method: as §1

EGFR(E746-A750del) = settings: at 1 μM
Summary of the method: as §1

[7] = test system: EGFR(L747-E749del, A750P); settings: at 1 μM
Summary of the method: as §1

EGFR(L858R) = settings: at 1 μM
Summary of the method: (§2)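 Steps: biotinylated ligand loaded onto streptavidin beads (30 min RT), then biotin-blocked; kinase, beads and compound combined in SeaBlock/PBS/Tween/DTT buffer for 1 h RT; beads washed; kinase eluted with 0.5 μM non-biotinylated ligand; eluate quantified by qPCR.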

EGFR = settings: at 1 μM
Summary of the method: as §1

EPHA5 = settings: at 1 μM
Summary of the method: as §2

EPHA7 = settings: at 1 μM
Summary of the method: as §2

EPHB1 = settings: at 1 μM
Summary of the method: as §1

EPHB3 = settings: at 1 μM
Summary of the method: as §1

ERBB3 = settings: at 1 μM
Summary of the method: as §1

FES = settings: at 1 μM
Summary of the method: as §1

FGFR2 = settings: at 1 μM
Summary of the method: as §1

FGFR4 = settings: at 1 μM
Summary of the method: as §1

FLT3(D835Y) = settings: at 1 μM
Summary of the method: as §1

FLT3(R834Q) = settings: at 1 μM
Summary of the method: as §1

FLT4 = settings: at 1 μM
Summary of the method: as §1

FYN = settings: at 1 μM
Summary of the method: as §1

KIT(D816V) = settings: at 1 μM
Summary of the method: as §1

MERTK = settings: at 1 μM
Summary of the method: as §1

MET(M1250T) = settings: at 1 μM
Summary of the method: as §1

MST1R = settings: at 1 μM
Summary of the method: as §1

PDGFRB = settings: at 1 μM
Summary of the method: as §1

RET(V804L) = settings: at 1 μM
Summary of the method: as §1

RET = settings: at 1 μM
Summary of the method: as §1

SYK = settings: at 1 μM
Summary of the method: as §1

TEC = settings: at 1 μM
Summary of the method: as §1

TRKB = settings: at 1 μM
Summary of the method: as §1

TXK = settings: at 1 μM
Summary of the method: as §1

[8] = test system: TYK2(JH1domain-catalytic); settings: for % Ctrl: TYK2(JH1domain-catalytic), at 1 μM; for Kd: read-out: TYK2(JH1 domain-catalytic) Kd
Summary of the method: as §2

TYRO3 = settings: at 1 μM
Summary of the method: as §1

Cc1cc2c([nH]1)/C=C1\C(=O)Nc3c(Cl)cc(cc31)-c1cn(C)nc1COC[C@@H](C)N(C)C2=O [Cpd. 5, [3a(4)Z,10R]-20-chloro-6,9,10,15-tetramethyl-10,11,13,15-tetrahydro-2H-1,17-(ethanediylidene)pyrazolo[4,3-m]dipyrrolo[3,2-f:3′,4′-i][1,4]oxazacyclopentadecine-3,8(5H,9H)-dione]
% Ctrl [1]: 79% | % Ctrl [2]: 83% | % Ctrl [3]: 98% | % Ctrl [4]: 80% | % Ctrl [5]: 79% | % Ctrl [6]: 73% | % Ctrl (ABL1-phosphorylated): 79% | % Ctrl (AXL): 86% | % Ctrl (BLK): 87% | % Ctrl (CSF1R-autoinhibited): 75% | % Ctrl (CSK): 96% | % Ctrl (DDR1): 93% | % Ctrl (EGFR(E746-A750del)): 95% | % Ctrl [7]: 74% | % Ctrl (EGFR(L858R)): 90% | % Ctrl (EGFR): 96% | % Ctrl (EPHA5): 97% | % Ctrl (EPHA7): 98% | % Ctrl (EPHB1): 92% | % Ctrl (EPHB3): 89% | % Ctrl (ERBB3): 71% | % Ctrl (FES): 89% | % Ctrl (FGFR2): 100% | % Ctrl (FGFR4): 88% | % Ctrl (FLT3(D835Y)): 100% | % Ctrl (FLT3(R834Q)): 98% | % Ctrl (FLT4): 98% | % Ctrl (FYN): 77% | % Ctrl (KIT(D816V)): 100% | % Ctrl (MERTK): 86% | % Ctrl (MET(M1250T)): 100% | % Ctrl (MST1R): 95% | % Ctrl (PDGFRB): 100% | % Ctrl (RET(V804L)): 84% | % Ctrl (RET): 95% | % Ctrl (SYK): 90% | % Ctrl (TEC): 94% | % Ctrl (TRKB): 100% | % Ctrl (TXK): 94% | % Ctrl [8]: 69% | Kd [8]: > 10 µM | % Ctrl (TYRO3): 84%

Cc1cc2c([nH]1)/C=C1\C(=O)Nc3c(Cl)cc(cc31)-c1cn(C)nc1COC[C@@H](C)NC2=O [Cpd. 3, [3a(4)Z,10R]-20-chloro-6,10,15-trimethyl-10,11,13,15-tetrahydro-2H-1,17-(ethanediylidene)pyrazolo[4,3-m]dipyrrolo[3,2-f:3′,4′-i][1,4]oxazacyclopentadecine-3,8(5H,9H)-dione]
% Ctrl [1]: 100% | % Ctrl [2]: 93% | % Ctrl [3]: 100% | % Ctrl [4]: 100% | % Ctrl [5]: 92% | % Ctrl [6]: 91% | % Ctrl (ABL1-phosphorylated): 96% | % Ctrl (AXL): 86% | % Ctrl (BLK): 92% | % Ctrl (CSF1R-autoinhibited): 71% | % Ctrl (CSK): 94% | % Ctrl (DDR1): 98% | % Ctrl (EGFR(E746-A750del)): 98% | % Ctrl [7]: 90% | % Ctrl (EGFR(L858R)): 96% | % Ctrl (EGFR): 79% | % Ctrl (EPHA5): 100% | % Ctrl (EPHA7): 100% | % Ctrl (EPHB1): 100% | % Ctrl (EPHB3): 93% | % Ctrl (ERBB3): 74% | % Ctrl (FES): 99% | % Ctrl (FGFR2): 90% | % Ctrl (FGFR4): 92% | % Ctrl (FLT3(D835Y)): 81% | % Ctrl (FLT3(R834Q)): 100% | % Ctrl (FLT4): 100% | % Ctrl (FYN): 100% | % Ctrl (KIT(D816V)): 97% | % Ctrl (MERTK): 98% | % Ctrl (MET(M1250T)): 100% | % Ctrl (MST1R): 98% | % Ctrl (PDGFRB): 100% | % Ctrl (RET(V804L)): 98% | % Ctrl (RET): 96% | % Ctrl (SYK): 68% | % Ctrl (TEC): 96% | % Ctrl (TRKB): 100% | % Ctrl (TXK): 91% | % Ctrl [8]: 71% | Kd [8]: > 10 µM | % Ctrl (TYRO3): 94%

Cc1cc2c([nH]1)/C=C1\C(=O)Nc3ccc(cc31)-c1c(nn(C)c1C)COCCN(C)C2=O [Cpd. 2, [3a(4)Z]-6,9,15,16-tetramethyl-10,11,13,15-tetrahydro-2H-1,17-(ethanediylidene)pyrazolo[4,3-m]dipyrrolo[3,2-f:3′,4′-i][1,4]oxazacyclopentadecine-3,8(5H,9H)-dione]
% Ctrl [1]: 45% | % Ctrl [2]: 78% | % Ctrl [3]: 35% | % Ctrl [4]: 64% | % Ctrl [5]: 57% | % Ctrl [6]: 60% | % Ctrl (ABL1-phosphorylated): 50% | % Ctrl (AXL): 43% | % Ctrl (BLK): 98% | % Ctrl (CSF1R-autoinhibited): 100% | % Ctrl (CSK): 100% | % Ctrl (DDR1): 100% | % Ctrl (EGFR(E746-A750del)): 100% | % Ctrl [7]: 85% | % Ctrl (EGFR(L858R)): 78% | % Ctrl (EGFR): 66% | % Ctrl (EPHA5): 99% | % Ctrl (EPHA7): 89% | % Ctrl (EPHB1): 99% | % Ctrl (EPHB3): 100% | % Ctrl (ERBB3): 100% | % Ctrl (FES): 100% | % Ctrl (FGFR2): 85% | % Ctrl (FGFR4): 100% | % Ctrl (FLT3(D835Y)): 36% | % Ctrl (FLT3(R834Q)): 50% | % Ctrl (FLT4): 19% | % Ctrl (FYN): 100% | % Ctrl (KIT(D816V)): 60% | % Ctrl (MERTK): 100% | % Ctrl (MET(M1250T)): 98% | % Ctrl (MST1R): 100% | % Ctrl (PDGFRB): 79% | % Ctrl (RET(V804L)): 80% | % Ctrl (RET): 90% | % Ctrl (SYK): 100% | % Ctrl (TEC): 83% | % Ctrl (TRKB): 12% | % Ctrl (TXK): 100% | % Ctrl [8]: 100% | Kd [8]: > 10 µM | % Ctrl (TYRO3): 100%

Reference: patent publication US20250074920A1, “MACROCYCLIC COMPOUNDS AND USE AS KINASE INHIBITORS” (BLOSSOMHILL THERAPEUTICS, INC., priority 2022, published 2025)
